19 compounds from US8269000B2, “Substituted pyrimidine and triazine compounds” (Gruenenthal GmbH, priority 2008, dated 2012) can be followed below.

The assay deals with T1, rat B1R (Rattus norvegicus, UniProt P97583).
T1 construct: expressed in transfected cells; host or cells: CHO K1 cells
T1 sequence (P97583 1-337): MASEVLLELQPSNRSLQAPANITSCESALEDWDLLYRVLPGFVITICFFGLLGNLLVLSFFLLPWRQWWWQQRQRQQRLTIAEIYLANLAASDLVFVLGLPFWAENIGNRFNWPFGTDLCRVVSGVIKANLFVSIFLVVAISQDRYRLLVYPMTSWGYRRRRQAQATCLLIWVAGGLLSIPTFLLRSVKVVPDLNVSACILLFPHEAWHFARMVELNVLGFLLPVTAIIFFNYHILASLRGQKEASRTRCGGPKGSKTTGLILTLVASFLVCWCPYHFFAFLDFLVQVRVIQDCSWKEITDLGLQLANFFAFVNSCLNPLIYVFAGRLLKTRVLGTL
Nature of the assay: FLIPR Ca2+ functional study on bradykinin receptor 1 (rB1R CHO K1 cells). Type of assay: cell-based. Conditions: for inhibition at 10 µM: CHO-K1, % inhibition rat B1R at 10 μM, read-out: % inh. (rat B1R) 10 μM; for % inh. (rat B1R) 10 μM: % inhibition rat B1R at 10 μM. The essentials:
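Antagonism was calculated as % of maximal inhibition of the Ca2+ rise triggered by agonist at EC80 (Lys-Des-Arg9-bradykinin for hB1R, Des-Arg9-bradykinin for rB1R), added 10-20 min after test compound (10 μM or serial dilutions for IC50) to Fluo-4-loaded transfected CHO K1 cells on FLIPR. Duplicates or triplicates, ≥2 independent runs.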

On to `COc1cc(C)c(S(=O)(=O)N2CCCCC2COc2ccnc(N3CCC(CNC(=O)c4ccncc4)(N4CCN(C)CC4)CC3)n2)c(C)c1` (stereo not shown) [H_CC-031, N-[[1-[4-[[1-(4-methoxy-2,6-dimethylphenyl)sulfonyl-2-piperidinyl]methoxy]-2-pyrimidinyl]-4-(4-methyl-1-piperazinyl)-4-piperidinyl]methyl]-4-pyridinecarboxamide], for which the inhibition at 10 µM is 56%. `COc1cc(C)c(S(=O)(=O)N(C)CCOc2nccc(N3CCC4(CC3)C(=O)N(C)CC4c3ccc(F)cc3)n2)c(C)c1` (stereo not shown) [G_CC-044, N-[2-[[4-[1-(4-fluorophenyl)-3-methyl-4-oxo-3,8-diazaspiro[4.5]decan-8-yl]-2-pyrimidinyl]oxy]ethyl]-4-methoxy-N,2,6-trimethylbenzenesulfonamide]: the inhibition at 10 µM was determined as 68%. Still for that read-out and setting: the same measure for `COc1cc(C)c(S(=O)(=O)N2CC(Oc3ccnc(N4CCC(CCN5CCCC5)CC4)n3)C2)c(C)c1` [H_CC-014, 4-[[1-(4-methoxy-2,6-dimethylphenyl)sulfonyl-3-azetidinyl]oxy]-2-[4-(2-1-pyrrolidinylethyl)-1-piperidinyl]pyrimidine]: 53%; for `COc1cc(C)c(S(=O)(=O)N2CCCCC2COc2ccnc(N(C)CCCN3CCC(c4ccccc4)(N(C)C)CC3)n2)c(C)c1` (stereo not shown) [H_CC-061, 3-(4-dimethylamino-4-phenyl-piperidin-1-yl)-propyl-[4-[[1-[(4-methoxy-2,6-dimethyl-phenyl)sulfonyl]-piperidin-2-yl]-methoxy]-pyrimidin-2-yl]-methyl-amine]: 105%; for `COc1cc(C)c(S(=O)(=O)N2CCC[C@H]2COc2nccc(N3CCC(OCCN4CCCC4)(c4cccc(F)c4)CC3)n2)c(C)c1` [G_CC-086, 4-[4-(3-fluorophenyl)-4-(2-pyrrolidin-1-yl-ethoxy)-piperidin-1-yl]-2-[[(2S)-1-[(4-methoxy-2,6-dimethyl-phenyl)sulfonyl]-pyrrolidin-2-yl]-methoxy]-pyrimidine]: 105%. Regarding `COc1cc(C)c(S(=O)(=O)N2CCCCC2COc2ccnc(N3CCCC3Cc3ccccn3)n2)c(C)c1` (stereo not shown) [H_CC-078, 4-[[1-[(4-methoxy-2,6-dimethyl-phenyl)sulfonyl]-piperidin-2-yl]-methoxy]-2-[2-(pyridin-2-yl-methyl)-pyrrolidin-1-yl]-pyrimidine], the inhibition at 10 µM was 77%. For `COc1cc(C)c(S(=O)(=O)N2c3ccccc3C[C@H]2COc2nccc(N3CC4CC3CN4Cc3ccc(F)cc3)n2)c(C)c1` (stereo partly drawn) [G_CC-130, (2S)-2-[[4-[2-[(4-fluorophenyl)-methyl]-2,5-diazabicyclo[2.2.1]heptan-5-yl]-pyrimidin-2-yl]oxy-methyl]-1-[(4-methoxy-2,6-dimethyl-phenyl)sulfonyl]-2,3-dihydro-1H-indole], the inhibition at 10 µM turned out to be 61%.

As for `COc1cc(C)c(S(=O)(=O)N2CCC[C@@H]2COc2nccc(N3CCCC3Cc3ccccn3)n2)c(C)c1` (stereo partly drawn) [G_CC-084, 2-[[(2R)-1-[(4-methoxy-2,6-dimethyl-phenyl)sulfonyl]-pyrrolidin-2-yl]-methoxy]-4-[2-(pyridin-2-yl-methyl)-pyrrolidin-1-yl]-pyrimidine], the inhibition at 10 µM worked out at 83%. As for `COc1cc(C)c(S(=O)(=O)N2CCCCC2COc2nccc(N3CCN(c4ccc(F)cc4)CC3)n2)c(C)c1` (stereo not shown) [G_CC-010, 4-[4-(4-fluorophenyl)-1-piperazinyl]-2-[[1-(4-methoxy-2,6-dimethylphenyl)sulfonyl-2-piperidinyl]methoxy]pyrimidine], the inhibition at 10 µM came out at 70%. Same read-out and setting: the same measure for `COc1cc(C)c(S(=O)(=O)N2CCCCC2COc2nccc(N3CCC(n4c(=O)[nH]c5cc(Cl)ccc54)CC3)n2)c(C)c1` (stereo not shown) [G_CC-024, 6-chloro-3-[1-[2-[[1-(4-methoxy-2,6-dimethylphenyl)sulfonyl-2-piperidinyl]methoxy]-4-pyrimidinyl]-4-piperidinyl]-1H-benzimidazol-2-one]: 73%; for `COc1cc(C)c(S(=O)(=O)N(C)CCOc2nccc(N3CCC(c4cccs4)(N(C)C)CC3)n2)c(C)c1` [G_CC-118, N-[2-[4-(4-dimethylamino-4-thiophen-2-yl-piperidin-1-yl)-pyrimidin-2-yl]oxy-ethyl]-4-methoxy-N,2,6-trimethyl-benzenesulfonic acid amide]: 86%; for `COc1cc(C)c(S(=O)(=O)N2CC(Oc3ccnc(N(C)CCN4CCC(c5ccccc5)(N(C)C)CC4)n3)C2)c(C)c1` [H_CC-069, 2-(4-dimethylamino-4-phenyl-piperidin-1-yl)-ethyl-[4-[1-[(4-methoxy-2,6-dimethyl-phenyl)sulfonyl]-azetidin-3-yl]oxy-pyrimidin-2-yl]-methyl-amine]: 52%. Take `COc1cc(C)c(S(=O)(=O)N2CCCCC2COc2nccc(N3[C@@H]4CC[C@H]3CC(Oc3cccnc3)C4)n2)c(C)c1` (stereo partly drawn) [G_CC-105, (1S,5R)-8-[2-[[1-[(4-methoxy-2,6-dimethyl-phenyl)sulfonyl]-piperidin-2-yl]-methoxy]-pyrimidin-4-yl]-3-pyridin-3-yloxy-8-azabicyclo[3.2.1]octane]: the inhibition at 10 µM came out at 101%. Regarding `COc1cc(C)c(S(=O)(=O)N2CCCCC2COc2ccnc(N3CCN(c4ccncc4)CC3)n2)c(C)c1` (stereo not shown) [H_CC-005, 4-[[1-(4-methoxy-2,6-dimethylphenyl)sulfonyl-2-pipendinyl]methoxy]-2-[4-(4-pyridyl)-1-piperazinyl]pyrimidine], the “% inh. (rat B1R) 10 μM” value came to 94%. For the compound `COc1cc(C)c(S(=O)(=O)N(C)C(COc2nccc(N3CC4CC3CN4Cc3ccc(F)cc3)n2)c2ccccc2)c(C)c1` (stereo not shown) [G_CC-065, N-[2-[[4-[2-[(4-fluorophenyl)methyl]-2,5-diazabicyclo[2.2.1]heptan-5-yl]-2-pyrimidinyl]oxy]-1-phenylethyl]-4-methoxy-N,2,6-trimethylbenzenesulfonamide], the inhibition at 10 µM is 58%. In the case of `COc1cc(C)c(S(=O)(=O)N2CCC[C@H]2COc2ccnc(N3CCN(CC4CCN(C)CC4)CC3)n2)c(C)c1` [H_CC-012, 4-[[(2S)-1-(4-methoxy-2,6-dimethylphenyl)sulfonyl-2-pyrrolidinyl]methoxy]-2-[4-[(1-methyl-4-pipendinyl)methyl]-1-piperazinyl]pyrimidine], the “% inh. (rat B1R) 10 μM” value is listed as 93%. Regarding `COc1cc(C)c(S(=O)(=O)N2CCCCC2COc2nccc(N3CCC(C)(N4CCOCC4)CC3)n2)c(C)c1` (stereo not shown) [G_CC-131, 4-[1-[2-[[1-[(4-methoxy-2,6-dimethyl-phenyl)sulfonyl]-piperidin-2-yl]-methoxy]-pyrimidin-4-yl]-4-methyl-piperidin-4-yl]-morpholine], the inhibition at 10 µM came to 88%. As to `COc1cc(C)c(S(=O)(=O)N2CCC[C@H]2COc2nccc(N(C)CCN3CCC(c4ccccc4)(N4CCCC4)CC3)n2)c(C)c1` [G_CC-091, [2-[[(2S)-1-[(4-methoxy-2,6-dimethyl-phenyl)sulfonyl]-pyrrolidin-2-yl]-methoxy]-pyrimidin-4-yl]-methyl-[2-(4-phenyl-4-pyrrolidin-1-yl-piperidin-1-yl)-ethyl]-amine], the inhibition at 10 µM worked out at 101%. `COc1cc(C)c(S(=O)(=O)N(C)C(COc2nccc(N(C)CCN3CCC(O)(c4cccnc4)CC3)n2)c2ccccc2)c(C)c1` (stereo not shown) [G_CC-138, N-[2-[4-[2-(4-hydroxy-4-pyridin-3-yl-piperidin-1-yl)-ethyl-methyl-amino]-pyrimidin-2-yl]oxy-1-phenyl-ethyl]-4-methoxy-N,2,6-trimethyl-benzenesulfonic acid amide]: the inhibition at 10 µM turned out to be 56%.
